PubChem BioAssay (NCI)
Several values for one entry are separate records, joined by “and”; a condition that tells them apart may be missing. Equal entries are not always repeated.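 Assay format: 96-well plates, 48-hour exposure. Here, GI50 denotes the concentration required for 50% inhibition of growth. Definition used: TGI = concentration required for complete inhibition of growth.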

Experiments:
Experiment in all cases: NCI tumour cell line growth inhibition, 48 h
RXF-631 renal = system: RXF-631 renal
DLD-1 colon = system: DLD-1 colon
DMS 114 small cell lung = system: DMS 114 small cell lung
KM20L2 colon = system: KM20L2 colon
SNB-78 CNS = system: SNB-78 CNS
M19-MEL melanoma = system: M19-MEL melanoma
XF 498 CNS = system: XF 498 CNS
MDA-N = system: MDA-N
HOP-18 NSCLC = system: HOP-18 NSCLC

SMILES	TGI (RXF-631 renal)	TGI (DLD-1 colon)	TGI (DMS 114 small cell lung)	TGI (KM20L2 colon)	TGI (SNB-78 CNS)	TGI (M19-MEL melanoma)	TGI (XF 498 CNS)	TGI (MDA-N) [µM]	TGI (HOP-18 NSCLC)	GI50 (MDA-N) [µM]	GI50 (DMS 114 small cell lung)	GI50 (KM20L2 colon)	GI50 (M19-MEL melanoma)
Cc1cc(NS(=O)(=O)c2ccc(NC(=O)c3cccc4cc5ccccc5nc34)cc2)no1	37.5 µM	52.1 µM	49.2 µM	75.1 µM	69.6 µM	74.3 µM	33.6 µM	–	–	–	–	–	–
CNc1cccnc1/C=N/NC(N)=S	–	–	–	–	–	–	–	> 10	–	–	–	–	–
Cc1ccc([N+](=O)[O-])cc1NC(=O)C(=O)Cc1cc(=O)oc2cc(O)ccc12	–	> 100 µM	36.3 µM	> 100 µM	> 100 µM	> 100 µM	> 100 µM	–	> 100 µM	–	–	–	–
COc1ccc(CC2NCCc3cc(OC)c(OC)cc32)cc1 (centres undefined)	> 100 µM	> 100 µM	> 100 µM	> 100 µM	> 100 µM	> 100 µM	> 100 µM	–	> 100 µM	–	–	–	–
O=C1SC(c2ccccc2)(c2ccccc2)c2ccccc21	–	> 100 µM	94.4 µM	> 100 µM	> 100 µM	> 100 µM	> 100 µM	–	> 100 µM	–	–	–	–
CCCC(=O)Nc1cc([N+](=O)[O-])c([N+](=O)[O-])cc1OC	–	–	–	–	–	–	–	30.6	–	–	–	–	–
Nc1ccc(C(=O)NN2C(=O)C(Cl)C2c2ccc([N+](=O)[O-])cc2)cc1 (centres undefined)	–	21.8 µM	11.2 µM	27.4 µM	51.7 µM	28 µM	–	–	–	–	–	–	–
COCOCc1cc(OCc2ccccc2)c(OC)cc1Br	–	> 100 µM	–	> 100 µM	> 100 µM	> 100 µM	> 100 µM	–	> 100 µM	–	–	–	–
C/C1=C\CC[C@@]2(C)O[C@@H]2C[C@@H]2[C@H](C/C(C)=C/CC1)OC(=O)C21CCN=N1 (some centres undefined)	–	–	–	–	–	–	–	> 100	–	> 100	–	–	–
Oc1ccc2ccccc2c1C(c1ccc(Cl)cc1)c1c(O)ccc2ccccc12	–	–	–	–	–	–	–	12.2	–	–	–	–	–
CC(=O)OC1(C#N)CC2OC1C1C2N1C(=O)OC(C)(C)C (centres undefined)	–	> 100 µM	> 100 µM	> 100 µM	> 100 µM	> 100 µM	> 100 µM	–	–	–	–	–	–
Cc1ccc(-c2nc3c(C(=O)NCCN(C)C)cccc3[nH]2)cc1	31 µM	73.2 µM	26.6 µM	–	83.3 µM	29.7 µM	–	–	51.5 µM	–	–	–	–
CC(C)[Si](OCC1CC(C[C@H]2CC(C[C@H]3C[C@@H](CO[Si](C(C)C)(C(C)C)C(C)C)OC(C)(C)O3)OC(C)(C)O2)OC(C)(C)O1)(C(C)C)C(C)C (some centres undefined)	–	> 100 µM	> 100 µM	> 100 µM	> 100 µM	> 100 µM	–	–	> 100 µM	–	–	–	–
CC1CC(=O)C(CC(=O)O)C1C(C(=O)C(=O)Nc1c(C#N)cccc1[N+](=O)[O-])[N+](=O)[O-] (centres undefined)	–	> 100 µM	> 100 µM	> 100 µM	> 100 µM	> 100 µM	> 100 µM	–	–	–	–	–	–
S=P1(c2ccccc2)Nc2ccc(Cl)cc2N1 (centres undefined)	> 100 µM	> 100 µM	> 100 µM	> 100 µM	> 100 µM	67.2 µM	> 100 µM	–	> 100 µM	–	–	–	–
Cn1cnc([N+](=O)[O-])c1SC1=NCCS1	–	> 100 µM	–	–	> 100 µM	> 100 µM	> 100 µM	–	> 100 µM	–	–	–	–
Cc1ccc(NC(=O)C(=O)C2NC(=S)NC2=O)c([N+](=O)[O-])c1 (centres undefined)	–	> 100 µM	> 100 µM	> 100 µM	> 100 µM	> 100 µM	> 100 µM	–	> 100 µM	–	–	–	–
CC(C)=CC(O)C/C(C)=C/CC/C(C)=C/CCC1(C)C(CCCO)/C(=C(/C)C=O)CCC1(C)O (centres undefined)	–	–	–	–	–	–	–	52.4	–	–	–	–	–
C/C=C(\CCC1NCCc2c1[nH]c1ccccc21)[Si](C)(C)C (centres undefined)	17.1 µM and 13.9 µM	14.1 µM and 11.3 µM	10.8 µM and 3.51 µM	11.7 µM and 4.12 µM	24.5 µM and 11.7 µM	12.9 µM and 3.89 µM	6.99 µM and 2.75 µM	3.74	50.8 µM and 19.1 µM	–	5.76 µM and 1.83 µM	5.29 µM and 1.92 µM	6.62 µM and 1.95 µM
Cc1ccc(S(=O)(=O)N/N=C/c2oc(-c3ccccc3Cl)c(-c3ccccc3Cl)c2[N+](=O)[O-])cc1	60.3 µM	47.9 µM	76.7 µM	37.9 µM	–	65 µM	–	–	–	–	–	–	–
